Common to all, as to assay type: cell-based
Assay [1] relates to PC12 cells that express mutant G93A SOD1 as a YFP fusion protein. Description: high throughput cytotoxicity protection assay. To be noted: for EC50: Rattus norvegicus, PC-12, Table 1, fluorinated PYT compounds. From the text:
Cultured cells are utilized to conduct high throughput assays for compounds that protect against mutant SOD1-induced cytotoxicity. Two assays are used: first, in the cytotoxicity protection assay, compounds are screened for their ability to protect cells from the cytotoxic effects of aggregated mutant SOD1, irrespective of mechanism of drug action. Second, in the protein aggregation assay, compounds are screened for their ability to reduce aggregation of mutant SOD1. The high throughput cytotoxicity protection assay is the primary screen and compounds active in the primary screen (and their analogs) move forward into the secondary screen for protein aggregation.
(§1) The high throughput cytotoxicity protection assay was carried out in PC12 cells that express mutant G93A SOD1 as a YFP fusion protein from a doxycycline-inducible promoter (Matsumoto et al., J. Cell. Biol. 2005, 171, 75). […] This idea was tested by examining the sensitivity of PC12 cells to SOD1 aggregates in the presence and absence of proteasome inhibitor MG132. PC12 cells expressing no SOD1, wild type SOD1, G85R SOD1 or G93A SOD1 were grown with or without MG132 (FIG. 1). […] In these cells, protein aggregation was detected after 24 h and loss of cell viability was detected at approximately 48 h. […] The ability of protein aggregates to induce cell death was examined by treating G93A SOD1-expressing cells with MG132 for 24 h, removing the MG132 by washing and assaying cell viability after another 24 h. Because the loss of cell viability was similar following MG132 removal (FIG. 1, part C), it is likely that mutant SOD1 aggregates contribute directly to cytotoxicity in PC12 cells.
(§2) PC12 cells expressing G93A SOD1 were treated with 100 nM MG132 with or without co-treatment with geldanamycin or radicicol. […] Statistical analysis of the data produced a Z′ value of 0.55, which would predict good performance as a positive control in a high throughput screen (Zhang et al. J. Biomol. Screen 1999, 4(2), 67-73).

Assay [2] has as its system PC12 cells expressing G93A mutant SOD1. Briefly: mutant SOD1 protein aggregation in G93A cells. The method, then:
as §2
In PC12 cells that express wild-type SOD1, SOD1 was diffusely localized throughout the cell (Matsumoto et al. J. Cell. Biol 2005, 171(1), 75-85). […] Therefore, these effects are likely to be due to MG132-induced proteasome inhibition, and not due to an off-target effect of MG132.
The identification of a positive control is a crucial step in assay development. Thus, PC12 cells expressing G85R or G93A mutant SOD1 were treated with MG132 to induce protein aggregation, and then co-treated with candidate chemical suppressors of protein aggregation. […] Both compounds induce heat shock transcription factor HSF-1, which in turn induces the heat shock response (FIG. 4). Treatment with radicicol reduced the proportion of cells with aggregates from 75% to 25%, a sufficient difference to allow visual scoring for compounds with efficacy equal to or greater than radicicol.

Assay [3] has as its system PC12 cells expressing G85R SOD1. Briefly: mutant SOD1 direct protein aggregation assay. From the text:
Compounds that are active in the above assay could theoretically protect against mutant SOD1-induced cytotoxicity through a number of mechanisms, including the following: 1) Compounds could nonspecifically block or reverse protein aggregation via chaperone induction, as observed for radicicol and geldanamycin 2) Compounds could block or reverse the aggregation of a specific aggregated protein form 3) Compounds could interfere with an event downstream of protein aggregation that plays a critical role in mutant SOD1-induced cytotoxicity (e.g., proteasome function). 4) Compounds could act directly on SOD1 in a manner that prevents mutant SOD1 aggregation. These possibilities were tested using an assay that directly measures protein aggregation. In addition, unlike the high throughput cytotoxicity protection assay, the protein aggregation assay is based on G85R SOD1; this broadens the scope of the screening strategy, and should eliminate compounds with highly specific activity (i.e., G93A SOD1 limited) against protein aggregation.
In PC12 cells that express wild-type SOD1, SOD1 was diffusely localized throughout the cell (Matsumoto et al. J. Cell. Biol 2005, 171(1), 75-85). […]
To allow this assay to be used in a high-throughput manner, a Cellomics Arrayscan® high content microscopy system was used for screening and quantification. […]

Assay [4] deals with PC12 cells expressing G93A SOD1. Description: sensitivity of PC12 cells to proteasome inhibitor (cell viability). As to the method: as §1
Assay [5] has as its system PC12 cells expressing no SOD1, wild type SOD1 and G85R SOD1. The description is as above. Particulars: Rattus norvegicus, PC-12. As to the method: as §1
Setting [6] is: G93A SOD1 cells treated with 100 nM MG132, co-treatment.

Molecules are shown by their SMILES. Where a SMILES comes first, the peptide text is derived from it. The star is where a group is joined. Cbz = O=C(OCc1ccccc1)*

For the compound `O=C1CC(=O)N(CC(F)(F)c2ccc(C(F)(F)F)cc2)C(=O)N1CC(F)(F)c1ccc(C(F)(F)F)cc1`, the EC50 in assay [1] is 2000 to 8000 nM.

In assay [1], `O=C1CC(=O)N(CC(F)(F)c2ccc(Cl)c(Cl)c2)C(=O)N1CC(F)(F)c1ccc(Cl)c(Cl)c1` showed an EC50 of 2000 to 8000 nM.

As to `O=C1CC(=O)N(CC(F)(F)c2ccc(Cl)cc2)C(=O)N1CC(F)(F)c1ccc(Cl)cc1`, the EC50 in assay [1] lay in the range of 2000 to 8000 nM.

With `O=C1CC(=O)N(CC(F)(F)c2ccc(F)c(F)c2)C(=O)N1CC(F)(F)c1ccc(F)c(F)c1`, in assay [1], the EC50 fell in the range of 2000 to 8000 nM.

With `CC(C)C[C@@H](C=O)NC(=O)[C@H](CC(C)C)NC(=O)[C@H](CC(C)C)NC(=O)OCc1ccccc1` [MG132] (Cbz-Leu-Leu-Leu-aldehyde), in assay [2] (cells expressing G93A mutant SOD1 following treatment with MG132), the “cells with protein aggregates” value is around 75%. Besides, the “cells containing protein aggregates” value in assay [3] (cells expressing G85R SOD1 treated with MG132) was “up to 75%”. In addition, in assay [4] (G93A SOD1 cells), the “fold more sensitive than cells expressing no SOD1, wild type SOD1 or G85R SOD1” value is reported as “approximately 5 fold”. The IC50 is around 75 nM in assay [4] (Rattus norvegicus, PC-12, read-out: IC50 (cell viability)) and around 400 nM in assay [5].

As for `CC(C)C[C@H](NC(=O)[C@H](Cc1ccccc1)NC(=O)c1cnccn1)B(O)O` [bortezomib], the “sensitivity of PC12 cells to proteasome inhibition compared with MG132” value in assay [4] is recorded as “Qualitatively similar results”.

`C[C@@H]1C[C@H]2O[C@@H]2/C=C\C=C\C(=O)Cc2c(Cl)c(O)cc(O)c2C(=O)O1` [radicicol]: in assay [1] (setting [6]), the cell viability entry is on record as “increased cell viability in a dose-dependent manner”. Further, the “formation of protein aggregates” value in assay [2] (setting [6]) is on record as “reduced formation of protein aggregates”. In addition, in assay [3] (PC12 cells expressing G85R or G93A mutant SOD1, MG132-treated, 75% without co-treatment), the “proportion of cells with aggregates after treatment” value is listed as 25%.

As a reminder, the EC50 is the concentration at which the effect is half-maximal. Usually IC50 stands for the concentration needed to halve the response being measured.

For the origin of these results see patent publication US9499494B2, “Pyrimidine-2,4,6-triones for use in the treatment of amyotrophic lateral sclerosis” (Northwestern University, priority 2009, dated 2016).
